Experimental data published in article PMC10817943 (Nature Communications, 2024).
Like-named read-outs stand apart in the source and are kept apart here.

Assays:
[1] = tested on: M. smegmatis mc^2155 reporter strain harboring PradA-LUX; conditions: RadA reporter, ciprofloxacin 0.06 µg/mL, MPA 0.125 µg/mL
[2] = tested on: M. smegmatis mc^2155 reporter strain harboring PrecA-LUX; conditions: RecA reporter, ciprofloxacin 0.06 µg/mL, MPA 0.125 µg/mL

O=C(O)c1cn(C2CC2)c2cc(N3CCNCC3)c(F)cc2c1=O [ciprofloxacin, Ciprofloxacin, reference compound]
luminescence induction ([1]; elapsed time 0:00:00): 123 RLU | luminescence induction ([1]; elapsed time 3:00:00): 1612 RLU | luminescence induction ([1]; elapsed time 6:00:00): 2073 RLU | luminescence induction ([1]; elapsed time 9:00:00): 2126 RLU | luminescence induction ([1]; elapsed time 12:00:00): 1993 RLU | luminescence induction ([1]; elapsed time 15:00:00): 2134 RLU | luminescence induction ([1]; elapsed time 18:00:00): 2689 RLU | luminescence induction ([1]; elapsed time 21:00:00): 4077 RLU | luminescence induction ([1]; elapsed time 24:00:00): 6491 RLU | luminescence induction ([1]; elapsed time 27:00:00): 10903 RLU | luminescence induction ([1]; elapsed time 30:00:00): 19150 RLU | luminescence induction ([1]; elapsed time 33:00:00): 33571 RLU | luminescence induction ([1]; elapsed time 36:00:00): 56395 RLU | luminescence induction ([1]; elapsed time 39:00:00): 67383 RLU | luminescence induction ([1]; elapsed time 42:00:00): 103238 RLU | luminescence induction ([1]; elapsed time 45:00:00): 85422 RLU | luminescence induction ([1]; elapsed time 48:00:00): 47660 RLU | luminescence induction ([1]; elapsed time 51:00:00): 21645 RLU | luminescence induction ([1]; elapsed time 54:00:00): 9619 RLU | luminescence induction ([1]; elapsed time 57:00:00): 4843 RLU | luminescence induction ([1]; elapsed time 60:00:00): 2928 RLU | luminescence induction ([1]; elapsed time 63:00:00): 1993 RLU | luminescence induction ([1]; elapsed time 66:00:00): 1543 RLU | luminescence induction ([1]; elapsed time 69:00:00): 1199 RLU | luminescence induction ([1]; elapsed time 72:00:00): 998 RLU | luminescence induction ([1]; elapsed time 75:00:00): 761 RLU | luminescence induction ([1]; elapsed time 78:00:00): 636 RLU | luminescence induction ([1]; elapsed time 81:00:00): 547 RLU | luminescence induction ([1]; elapsed time 84:00:00): 460 RLU | luminescence induction ([1]; elapsed time 87:00:00): 387 RLU | luminescence induction ([2]; elapsed time 0:00:00): 1225 RLU | luminescence induction ([2]; elapsed time 3:00:00): 9623 RLU | luminescence induction ([2]; elapsed time 6:00:00): 25614 RLU | luminescence induction ([2]; elapsed time 9:00:00): 37445 RLU | luminescence induction ([2]; elapsed time 12:00:00): 44651 RLU | luminescence induction ([2]; elapsed time 15:00:00): 48781 RLU | luminescence induction ([2]; elapsed time 18:00:00): 52120 RLU | luminescence induction ([2]; elapsed time 21:00:00): 57807 RLU | luminescence induction ([2]; elapsed time 24:00:00): 68911 RLU | luminescence induction ([2]; elapsed time 27:00:00): 89348 RLU | luminescence induction ([2]; elapsed time 30:00:00): 122834 RLU | luminescence induction ([2]; elapsed time 33:00:00): 178492 RLU | luminescence induction ([2]; elapsed time 36:00:00): 273065 RLU | luminescence induction ([2]; elapsed time 39:00:00): 424870 RLU | luminescence induction ([2]; elapsed time 42:00:00): 486228 RLU | luminescence induction ([2]; elapsed time 45:00:00): 462582 RLU | luminescence induction ([2]; elapsed time 48:00:00): 485841 RLU | luminescence induction ([2]; elapsed time 51:00:00): 408474 RLU | luminescence induction ([2]; elapsed time 54:00:00): 246511 RLU | luminescence induction ([2]; elapsed time 57:00:00): 125742 RLU | luminescence induction ([2]; elapsed time 60:00:00): 64490 RLU | luminescence induction ([2]; elapsed time 63:00:00): 37695 RLU | luminescence induction ([2]; elapsed time 66:00:00): 23762 RLU | luminescence induction ([2]; elapsed time 69:00:00): 17429 RLU | luminescence induction ([2]; elapsed time 72:00:00): 13645 RLU | luminescence induction ([2]; elapsed time 75:00:00): 10589 RLU | luminescence induction ([2]; elapsed time 78:00:00): 8697 RLU | luminescence induction ([2]; elapsed time 81:00:00): 7129 RLU | luminescence induction ([2]; elapsed time 84:00:00): 6189 RLU | luminescence induction ([2]; elapsed time 87:00:00): 5163 RLU
